Data on 7 compounds can be found in patent publication US4965280A, “Antifungal carbinols” (E. I. Du Pont de Nemours and Company, priority 1989, dated 1990).

Values after ≈ are worked out from the molar mass of the structure shown. Where two headings read alike, the source gives them in different places.

Assay [1] concerns Candida albicans ATCC 11651. The assay can be described thus: In vivo systemic Candida infection in mice, primary assay. Also noted: species or system Candida albicans; CF-1 female mice. The settings on record: Candida albicans, 150 mg/kg per day, read-out: % Survival. The text has this:
The […] activity of test compounds is based on the percent (%) survival of infected animals receiving test or standard agent compared to that in an infected untreated group (Table 6). The in vivo assays are chronic systemic infections lethal to mice within 7 days post infection, [J. Barnes, et al. Lab Investigation, 49 460-467 (1963), and T. Rogers and E. Balish, Infection and Immunity, 14 33-38 (1976)].
Candida albicans ATCC 11651, from a frozen stock culture (10^9 organisms/ml) maintained at -70°, is diluted in saline to 1×10^7 organisms/ml and 0.2 ml inoculated intravenously (caudal vein) into 20.0 gm CF-1 female mice (Charles River).
Test compounds are routinely solubilized in 0.25% (w/v) methylcellulose (Methocel®) but for those compounds difficult to solubilize 10% (w/v) Emulophor® (EL620 GAF Corp.) is used. The standard antifungal agents, amphotericin B (Fungizone®) in water and ketoconazole (Nizoral®) in Methocel®, are administered at 1.0 mg/kg/day and 150 mg/kg/day, respectively.
In a primary assay, mice (10 per group) are infected with C. albicans, and receive test compounds at 50 or 150 mg/kg/day via the subcutaneous route. Animals are dosed with the test compound at 1 and 6 hour post-infection and then once daily for the next three days. Survival of mice in each group is recorded for 21 days.
Compounds which protect ≥70% of the infected animals for 14 days at a dose 150 mg/kg/day or less are viewed as active.

The test system of assay [2] is Venturia inaequalis. Nature of the assay: Example A apple scab. The settings on record: 20 PPM, read-out: disease control rating, Ex. A. The format is in vivo. As for the experimental part:
The test compounds were dissolved in acetone in an amount equal to 6% of the final volume and then suspended at a concentration of 100 or 20 ppm in purified water containing 250 ppm of the surfactant TREM 014 (polyhydric alcohol esters). This suspension was sprayed to the point of run-off on apple seedings.

In assay [3] the test system is Cercosporidium personatum. The assay can be described thus: Example B Peanut Late Leafspot. The settings on record: Nothopassalora personata; 20 PPM; read-out: disease control rating, Ex. B. The format is in vivo. As for the experimental part: The test compounds were dissolved in acetone in an amount equal to 6% of the final volume and then suspended at a concentration of 100 or 20 ppm in purified water containing 250 ppm of the surfactant TREM 014 (polyhydric alcohol esters). This suspension was sprayed to the point of run-off on peanut seedlings.

Assay [4] relates to Botrytis cinerea. The assay can be described thus: Example C bean grey mold. To be noted: Botrytis cinerea, 24 h, read-out: disease control rating, Ex. C. The assay is classed as in vivo. As for the experimental part:
The test compounds were dissolved in acetone in an amount equal to 6% of the final volume and then suspended at a concentration of 100 or 20 ppm in purified water containing 250 ppm of the surfactant TREM 014 (polyhydric alcohol esters). This suspension was sprayed to the point of run-off on broad bean seedlings.

For assay [5], the system named is Erysiphe graminis f. sp. tritici. The assay can be described thus: Example D wheat powdery mildew. The format is in vivo. The settings on record: Blumeria graminis, 144 h, read-out: disease control rating, Ex. D. As for the experimental part:
The test compounds were dissolved in acetone in an amount equal to 6% of the final volume and then suspended at a concentration of 100 or 20 ppm in purified water containing 250 ppm of the surfactant TREM 014 (polyhydric alcohol esters). This suspension was sprayed to the point of run-off on wheat seedlings.

In assay [6] the test system is Pyricularia oryzae. The assay can be described thus: whole plant or invertebrate. The assay is classed as in vivo. To be noted: Pyricularia oryzae, 120 h; for pest or weed control at 20 ppm: read-out: disease control rating, Ex. E, 20 PPM; for pest or weed control at 100 ppm: read-out: disease control rating, Ex. E, 100 PPM.
In assay [7] the test system is Rhizoctonia solani. Nature of the assay: Example F rice sheath blight. The format is in vivo. To be noted: Rhizoctonia solani, 144 h, read-out: disease control rating, Ex. F. As for the experimental part:
The test compounds were dissolved in acetone in an amount equal to 6% of the final volume and then suspended at a concentration of 100 or 20 ppm in purified water containing 250 ppm of the surfactant TREM 014 (polyhydric alcohol esters). This suspension was sprayed to the point of run-off on rice seedlings.

Assay [8] deals with Puccinia recondita. The assay can be described thus: Example G wheat leaf rust. The format is in vivo. The settings on record: 20 PPM, read-out: disease control rating, Ex. G.
In assay [9] the test system is Phytophthora infestans. Nature of the assay: whole plant or invertebrate. The assay is classed as in vivo. The settings on record: Phytophthora infestans, in Solanum lycopersicum, read-out: disease control rating, Ex. H, 100 PPM.
For assay [10], the system named is Plasmorpara viticola. Nature of the assay: Example I grape downy mildew. The assay is classed as in vivo. The settings on record: read-out: disease control rating, Ex. I. As for the experimental part: The test compounds were dissolved in acetone in an amount equal to 6% of the final volume and then suspended at a concentration of 100 or 20 ppm in purified water containing 250 ppm of the surfactant TREM 014 (polyhydric alcohol esters). This suspension was sprayed to the point of run-off on grape seedlings.

In assay [11] the test system is Candida albicans ATCC 11651. Nature of the assay: In vitro antifungal MIC, microtiter broth dilution. To be noted: Candida albicans, ATCC11651, 24 h, read-out: MIC values, C. albicans, 30°, 24 hours.
Assay [12] concerns Aspergillus fumigatus ATCC 28214. The assay can be described thus: In vitro antifungal MIC, microtiter broth dilution. The settings on record: Aspergillus fumigatus, ATCC28214, 24 h, read-out: MIC values, A. fumigatus, 30°, 24 hours.

For `C=C(c1cccc(Cl)c1)C(O)(Cn1cncn1)c1ccc(F)cc1F` (stereo not drawn) [Example 42], the responders at 150 mg/kg was 80% in [1] (ATCC11651, 168 h, day 7); 80% in assay [1] (ATCC11651, 336 h, day 14); 50% in assay [1] (ATCC11651, 504 h, day 21). The pest or weed control at 20 ppm in assay [2] was 29%; in assay [3], 100%; in [4], 38%; in assay [5], 98%; in assay [6], 15%; in [7], 0%. Further, the pest or weed control at 20 ppm in [8] is 100%. In addition, the pest or weed control at 100 ppm turned out to be 100% in assay [4]; 100% in assay [5] (100 PPM); 31% in [6]; 41% in [7]; 0% in assay [9]; 23% in assay [10]. Besides, the MIC (as a rule, the least concentration at which growth counts as inhibited) in assay [11] stood at 0.03 µg/mL (≈ 0.0829 µM); in assay [12] it was 6.3 µg/mL (≈ 17.4 µM).
Consider `C=C(c1ccccc1Cl)C(O)(Cn1cncn1)c1ccc(Cl)c(Cl)c1` (stereo not drawn) [Example 627], for which the responders at 150 mg/kg in assay [1] (ATCC11651, 168 h, day 7) was 0%; in assay [1] (ATCC11651, 336 h, day 14), 0%; in assay [1] (ATCC11651, 504 h, day 21) it was 0%. In addition, the pest or weed control at 20 ppm in assay [2] came out at 31%; in assay [3] it was 70%; in assay [4], 19%; in assay [5] it was 81%; in assay [6], 0%; in assay [7], 0%. In [8], the pest or weed control at 20 ppm amounted to 99%. Besides, the pest or weed control at 100 ppm came out at 38% in assay [4]; 0% in [6]; 14% in assay [7]; 0% in assay [9]; 61% in [10]. Moreover, the MIC came to 0.03 µg/mL (≈ 0.076 µM) in assay [11] and 25 µg/mL (≈ 63.3 µM) in assay [12].
On to `C=C(c1ccccc1)C(O)(Cn1cncn1)c1ccccc1Cl` (stereo not drawn) [Example 596], for which the responders at 150 mg/kg in assay [1] (ATCC11651, 168 h, day 7) came out at 70%; in [1] (ATCC11651, 336 h, day 14) it was 60%; in assay [1] (ATCC11651, 504 h, day 21), 40%. For the same compound, the pest or weed control at 20 ppm came out at 91% in assay [2]; 95% in assay [3]; 35% in assay [4]; 94% in assay [5]; 0% in assay [6]; 0% in assay [7]. In addition, in assay [8], the pest or weed control at 20 ppm was 100%. For the same compound, the pest or weed control at 100 ppm stood at 89% in assay [4]; 0% in [6]; 0% in assay [7]; 0% in [9]; 25% in assay [10]. The MIC in assay [11] was found to be 0.05 µg/mL (≈ 0.153 µM); in assay [12], 0.4 µg/mL (≈ 1.23 µM).
`C=C(c1ccc(SC)cc1)C(O)(Cn1cncn1)c1ccc(F)cc1F` (stereo not drawn) [Example 164]: the responders at 150 mg/kg worked out at 100% in [1] (ATCC11651, 168 h, day 7); 80% in assay [1] (ATCC11651, 336 h, day 14); 70% in assay [1] (ATCC11651, 504 h, day 21). The pest or weed control at 20 ppm in [2] is 82%; in assay [3] it was 100%; in assay [4], 57%; in [5], 88%; in [6], 5%; in [7] it was 0%. Also, in [8], the pest or weed control at 20 ppm was determined as 100%. The pest or weed control at 100 ppm was 84% in assay [4]; 15% in assay [6]; 0% in [7]; 8% in [9]; 0% in assay [10]. The MIC in assay [11] came to 0.03 µg/mL (≈ 0.0803 µM); in assay [12], 1.6 µg/mL (≈ 4.28 µM).
With `C=C(c1ccc(F)cc1)C(O)(CC)Cn1cncn1` (stereo not drawn) [Example 668], the responders at 150 mg/kg in [1] (ATCC11651, 168 h, day 7) worked out at 70%; in assay [1] (ATCC11651, 336 h, day 14), 10%; in assay [1] (ATCC11651, 504 h, day 21), 0%. Further, the pest or weed control at 20 ppm turned out to be 65% in assay [2]; 17% in [3]; 31% in assay [4]; 31% in assay [5]; 1% in [6]; 0% in assay [7]. Further, the pest or weed control at 20 ppm in [8] was determined as 100%. In addition, the pest or weed control at 100 ppm in assay [4] was 76%; in assay [6], 1%; in [7], 0%; in [9] it was 22%; in assay [10], 31%. Besides, the figures for the MIC in assay [11] and in assay [12] were 0.4 µg/mL (≈ 1.53 µM) and 50 µg/mL (≈ 191 µM), respectively.
In the case of `C=C(c1ccc(F)cc1)C(Cn1cncn1)(OC(C)=O)c1ccc(F)cc1` (stereo not drawn) [Example 361], the responders at 150 mg/kg in [1] (ATCC11651, 168 h, day 7) was 100%; in assay [1] (ATCC11651, 336 h, day 14) it was 100%; in [1] (ATCC11651, 504 h, day 21), 90%. The pest or weed control at 20 ppm in assay [2] amounted to 43%; in assay [3] it was 26%; in [4], 29%; in [5], 33%; in [6], 1%; in assay [7], 0%. For the same compound, the pest or weed control at 20 ppm in assay [8] stood at 100%. The pest or weed control at 100 ppm was determined as 46% in assay [4]; 1% in [6]; 0% in assay [7]; 27% in assay [9]; 9% in assay [10]. The values for the MIC in assay [11] and in assay [12] were 0.8 µg/mL (≈ 2.17 µM) and 25 µg/mL (≈ 67.7 µM), respectively.
With `C=C(c1ccc(SC)cc1)C(O)(Cn1cncn1)c1ccc(F)cc1` (stereo not drawn) [Example 163], the responders at 150 mg/kg was found to be 90% in assay [1] (ATCC11651, 168 h, day 7); 60% in assay [1] (ATCC11651, 336 h, day 14); 40% in assay [1] (ATCC11651, 504 h, day 21). Besides, the pest or weed control at 20 ppm in assay [2] was 0%; in [3], 81%; in [4], 58%; in [5], 23%; in [6], 5%; in [7] it was 0%. Also, the pest or weed control at 20 ppm in assay [8] stood at 99%. Also, the pest or weed control at 100 ppm was 95% in assay [4]; 5% in assay [6]; 0% in [7]; 0% in assay [9]; 0% in assay [10]. The figures for the MIC in assay [11] and in assay [12] were 0.03 µg/mL (≈ 0.0844 µM) and 12.5 µg/mL (≈ 35.2 µM), respectively.
